Results reported in patent US9988407B2, “Prodrugs of prostate specific membrane antigen (PSMA) inhibitor” (THE JOHNS HOPKINS UNIVERSITY, priority 2014, dated 2018).
“Also recorded” adds a separate entry of the source.

Legend:
[1] = Chemical stability in HBSS buffer (pH 7.4) / simulated gastric fluid; type: physicochemical; settings: for Percentage remaining: HBSS, 10 μM, 37° C.; for chemical stability: chemical hydrolysis / HBSS buffer
Experimental: The chemical stability of prodrugs was evaluated using simulated gastric fluid (pH 1.2) and Hanks' Balanced Salt Solution (HBSS) buffer (pH 7.4). Briefly, prodrugs were spiked (10 μM) in respective solutions and incubated at 37° C. for 1 h. At predetermined time points (0, 30 and 60 min), aliquots of 100 μL were removed and diluted with 100 μL of water. Prodrug disappearance was monitored using the developed liquid chromatography and tandem mass spectrometry (LC/MS/MS) method described below.
(§1) For LC/MS/MS, prodrugs were separated with Thermo Scientific Accela UPLC system coupled to Accela open autosampler on an Agilent C18 (100×2.1 mm id) UPLC column. The autosampler was temperature controlled and operating at 10° C. The mobile phase used for the chromatographic separation was composed of acetonitrile/water containing 0.1% formic acid and was run at a flow rate of 0.5 mL/minute for 4.5 minutes using gradient elution. The column effluent was monitored using TSQ Vantage triple-quadrupole mass spectrometric detector, equipped with an electrospray probe set in the positive ionization mode. Samples were introduced into the ionization source through a heated nebulized probe (350° C.).
(§2) For quantification of compound remaining, disappearance of prodrugs was measured from ratio of peak areas of analyte to IS. Percentage remaining was calculated in the following manner: […]

[2] = Metabolic stability in mouse plasma; type: in vitro ADME; settings: 10 μM, 37° C.
Experimental: (§3) For metabolic stability, plasma (mouse, dog, monkey and human) and liver microsomes (mouse, dog, monkey and human) were used. For stability, prodrugs (10 μM) were spiked in each matrix and incubated in an orbital shaker at 37° C. At predetermined times (0, 30 and 60 min), 100 μL aliquots of the mixture in triplicate were removed and the reaction quenched by addition of three times the volume of ice cold acetonitrile spiked with the internal standard (losartan 5 μM). The samples were vortexed for 30 s and centrifuged 12000 g for 10 min. 50 μL supernatant diluted with 50 μL water was transferred to a 250 μL polypropylene vial sealed with a Teflon cap. Prodrug disappearance was monitored over time using a liquid chromatography and tandem mass spectrometry (LC/MS/MS) method as described below.
as §1, §2

[3] = Metabolic stability in mouse liver S9; type: in vitro ADME; settings: Mouse S9, 10 μM, 37° C.
[4] = Metabolic stability in mouse liver microsomes; type: in vitro ADME; settings: 10 μM, 37° C.
Experimental: as §3, §1, §2

[5] = In vivo pharmacokinetics in mice, peroral, bioanalysis method 1 (total prodrug exposure); settings: mice, oral dosing
Experimental: Blood was obtained via cardiac puncture and tissue dissected at 0 min, 15 min, 30 min, 1 h, 2 h, and 4 h post dose (n=3 per time point). Single time point studies were conducted at 30 min (N=3) following dosing. Plasma was harvested from blood by centrifugation. Mean concentration-time data was used for pharmacokinetic (PK) analysis. Non-compartmental-analysis module in WinNonlin® (version 5.3) was used to assess pharmacokinetic parameters. Peak plasma concentrations (Cmax) and time to Cmax (Tmax) were the observed values. Area under the curve (AUC) was calculated by log-linear (p.o.) trapezoidal rule to the end of sample collection (AUClast) and extrapolated to infinity (AUC0-∞) by dividing the last quantifiable concentration by the terminal disposition rate constant (ke). Terminal half-life (t1/2) was estimated from first order kinetics: t1/2=0.693/ke.
Briefly, prior to extraction, frozen samples were thawed on ice. For plasma extraction, 50 μL of the calibration standards or samples were transferred into silanized microcentrifuge tubes. Sample preparation involved a single liquid extraction by addition of 300 μL of methanol as extraction solution with internal standard (i.e., 5 μM of 2-PMSA in methanol), followed by vortexing for 30 s and then centrifugation at 12000 g for 10 min. Supernatant was transferred (˜250 μL) and evaporated to dryness at 40° C. under a gentle stream of nitrogen. The residue was reconstituted with 100 μL of derivatizing agent, n-butanol with 3N HCl, and samples were vortexed. The samples were heated at ˜60 OC in a shaking water bath for 30 min. At the end of 30 min, the derivatized samples were allowed to cool at room temperature and dried again for removal of derivatizing reagent, under a gentle stream of nitrogen. The residue was reconstituted in 100 μL of 30% acetonitrile in water v/v. The samples were vortexed and centrifuged again. ˜80 μL supernatant was transferred to a 250 μL polypropylene vial sealed with a Teflon cap and a volume of 10 μL was injected onto the ultra-performance liquid chromatography (UPLC) instrument for quantitative analysis. Chromatographic analysis was performed using an Accela™ ultra high-performance system consisting of an analytical pump, and an autosampler coupled with TSQ Vantage mass spectrometer (Thermo Fisher Scientific Inc., Waltham Mass.). […] The mobile phase used was composed of 0.1% formic acid in acetonitrile and 0.1% formic acid in H2O with gradient elution, starting with 20% (organic) linearly increasing to 65% up to 2.5 min, maintaining at 65% (2.5-3.5 min) and reequilibrating to 30% by 5 min. The total run time for each analyte was 5.0 min.

[6] = In vitro metabolic stability screen in plasma and liver subcellular fractions (results in words); type: in vitro ADME; settings: 60 min incubation
Experimental: as §3, §1
For quantification of compound remaining, disappearance of prodrugs was measured from ratio of peak areas of analyte to IS. Percentage remaining was calculated in the following manner:
In general, the prodrugs were screened by an in vitro metabolic stability screen, and if positive, followed by an in vivo single time point pharmacokinetic study, and in select cases, an in vivo full time course pharmacokinetic study (FIG. 3). In this Example, the four acidic functional groups in 2-PMPA were systematically capped. The carboxylic acids were first masked with simple alkyl esters (Compounds 1, 2, and 3). In vitro chemical and metabolic stability of the prodrugs then were conducted, following 60 min incubation in plasma stability screens for prodrugs.

[7] = Metabolic stability in human plasma; type: in vitro ADME; settings: 10 μM, 37° C.
Experimental: as §3, §1, §2

[8] = Metabolic stability in human liver microsomes; type: in vitro ADME; settings: 10 μM, 37° C.
Experimental: as §3, §1, §2

[9] = In vivo pharmacokinetics in mice, peroral, bioanalysis method 2 (2-PMPA release); settings: for stability of carboxylic esters in vivo: mouse
Experimental: Blood was obtained via cardiac puncture and tissue dissected at 0 min, 15 min, 30 min, 1 h, 2 h, and 4 h post dose (n=3 per time point). Single time point studies were conducted at 30 min (N=3) following dosing. Plasma was harvested from blood by centrifugation. Mean concentration-time data was used for pharmacokinetic (PK) analysis. Non-compartmental-analysis module in WinNonlin® (version 5.3) was used to assess pharmacokinetic parameters. Peak plasma concentrations (Cmax) and time to Cmax (Tmax) were the observed values. Area under the curve (AUC) was calculated by log-linear (p.o.) trapezoidal rule to the end of sample collection (AUClast) and extrapolated to infinity (AUC0-∞) by dividing the last quantifiable concentration by the terminal disposition rate constant (ke). […] The tissues were stored in −20° C. for 1 h and then homogenized. The calibration curve for the tissues was developed using naïve mouse brains from untreated animals as a matrix. For sciatic nerve, the nerves were weighed and homogenized in 50 μL methanol and the calibration curve was developed using naïve sciatic nerves from untreated animals as a matrix. The samples were vortexed and centrifuged. […] Supernatant was dried under a gentle stream of nitrogen at 45° C. and the residue reconstituted with 75 μL of acetonitrile and vortexed. 25 μL of derivatizing agent N-tert-Butyldimethysilyl-N-methyltrifluoro-acetamide (MTBSTFA) was added to microcentrifuge tubes, vortexed, and heated at ˜60 OC for 40 min. At the end of 40 min, the derivatized samples ˜75 μL were transferred to a 250 μL polypropylene vials and were analyzed via LC/MS/MS. Chromatographic analysis was performed using an Accela™ ultra high-performance system consisting of an analytical pump, and an autosampler coupled with TSQ Vantage mass spectrometer (Thermo Fisher Scientific Inc., Waltham Mass.). […] The total run time for each analyte was 5.0 min. Chromatographic analysis will be performed on Accela UPLC.

Structure (SMILES)	chemical stability [1]	Percentage remaining ([2]; 0 min)	Percentage remaining ([2]; 30 min)	Percentage remaining ([2]; 60 min)	Percentage remaining ([3]; 0 min)	Percentage remaining ([3]; 30 min)	Percentage remaining ([3]; 60 min)	Percentage remaining ([4]; 0 min)	Percentage remaining ([4]; 30 min)	Percentage remaining ([4]; 60 min)	permeability in vivo [5]	in vitro metabolic stability [6]	Percentage remaining ([7]; 0 min)	Percentage remaining ([7]; 30 min)	Percentage remaining ([7]; 60 min)	Percentage remaining ([8]; 0 min)	Percentage remaining ([8]; 30 min)	Percentage remaining ([8]; 60 min)	other results
COC(=O)CCC(CP(=O)(OCOC(=O)OC(C)C)OCOC(=O)OC(C)C)C(=O)OC (stereo not drawn) [Compound 6, Dimethyl 2-((bis{[(isopropoxycarbonyl)oxy]methoxy}phosphoryl)methyl)-pentanedioate]	stable to chemical hydrolysis	100%	2%	0.4%	100%	1%	0.1%	100%	2%	0.1%	good compound penetrability; also recorded: good permeability	unstable in mouse plasma and mouse liver microsomes							Percentage remaining ([1]; 0 min): 100%; Percentage remaining ([1]; 30 min): 101%; Percentage remaining ([1]; 60 min): 93%; chemical stability ([1]; listed as JHU 2110): stable in HBSS buffer; permeability in vivo ([5]; listed as JHU 2110): most permeable
CC(C)(C)C(=O)OCOC(=O)C(CCC(=O)O)CP(=O)(OCOC(=O)C(C)(C)C)OCOC(=O)C(C)(C)C (stereo not drawn) [Compound 23]	sufficient chemical stability										highest permeability	instability in plasma and liver subcellular fractions							
COC(=O)C(CCC(=O)O)CP(=O)(OCOC(=O)OC(C)C)OCOC(=O)OC(C)C (stereo not drawn) [Compound 7, 4-((Bis{[(isopropoxycarbonyl)oxy]methoxy}phosphoryl)methyl)-5-methoxy-5-oxopentanoic acid]	stable to chemical hydrolysis										good compound penetrability; also recorded: good permeability	unstable in mouse plasma and mouse liver microsomes							
CCOC(=O)CCC(CP(=O)(OCOC(=O)C(C)(C)C)OCOC(=O)C(C)(C)C)C(=O)OCC (stereo not drawn) [Compound 18, Diethyl 2-({bis[(pivaloyloxy)methoxy]phosphoryl}methyl)pentanedioate]		0%	0%	0%	100%	1%	0%	100%	2%	0%		too stable	100%	50%	18%	100%	1%	0%	
CCCOC(=O)CCC(CP(=O)(O)O)C(=O)OCCC (stereo not drawn) [Compound 3, [5-Oxo-5-propoxy-2-(propoxycarbonyl)pentyl]phosphonic acid]											then the propyl ester	too stable							stability of carboxylic esters in vivo [9]: too stable in vivo
COC(=O)CCC(CP(=O)(O)O)C(=O)OC (stereo not drawn) [Compound 1, [5-(Methyloxy)-2-(methoxycarbonyl)-5-oxopentyl]phosphonic acid]		100%	102%	101%	100%	101%	86%	100%	102%	103%		too stable; also recorded: stable in plasma	100%	100%	86%	100%	90%	96%	Percentage remaining ([1]; 0 min): 100%; Percentage remaining ([1]; 30 min): 92%; Percentage remaining ([1]; 60 min): 94%; stability of carboxylic esters in vivo [9]: too stable in vivo; in vitro metabolic stability ([6]; listed as JHU 2106): too stable
CC(C)OC(=O)OC(C)OC(=O)C(CCC(=O)O)CP(=O)(OC(C)OC(=O)OC(C)C)OC(C)OC(=O)OC(C)C (stereo not drawn) [Compound 24]	sufficient chemical stability	100%	0%	0%				100%	1%	0%		instability in plasma and liver subcellular fractions	100%	106%	75%	100%	27%	8%	oral bioavailability ([9]; rodents and dogs): excellent oral bioavailability
